Experiment: xn = mol fraction of the nth substance listed
Settings: 101 kPa

c1ccc2sccc2c1 + CCCC[N+]1(C)CCCC1.N#C[C-](C#N)C#N
x1 = 1
Settings	viscosity [mPa·s]
308.15 K	2.94
318.15 K	2.06
328.15 K	1.74
338.15 K	1.49
348.15 K	1.29
358.15 K	1.14

CCCC[N+]1(C)CCCC1.N#C[C-](C#N)C#N + c1ccc2sccc2c1
viscosity [mPa·s]
Settings	x2 = 0	x2 = 0.1112	x2 = 0.2212	x2 = 0.3565	x2 = 0.5267	x2 = 0.6111	x2 = 0.6767
308.15 K	–	18.8	17	14.78	–	10.45	9.23
318.15 K	15.44	14.1	12.77	11.13	9.01	7.87	6.89
328.15 K	12	10.97	9.95	8.69	–	6.19	5.41
338.15 K	9.59	8.77	7.96	–	5.68	4.98	4.36
348.15 K	7.81	7.16	6.49	5.67	4.65	4.1	3.59
358.15 K	6.47	5.93	5.38	4.74	3.88	3.44	3.03

— a compilation of properties of binary mixtures (doi:10.1007/s10953-014-0257-1)
